The record followed here is ChEMBL document CHEMBL4765274, “The development of advanced structural framework as multi-target-directed ligands for the treatment of Alzheimer's disease” (Eur J Med Chem, 2020).

By IC50 is commonly meant the concentration that inhibits the measured activity by half. Usually inhibition stands for the drop in the measured response relative to a control, in per cent.

Data set [1] can be described thus: Inhibition of self-induced amyloid beta (1 to 42 residues) (unknown origin) aggregation by thioflavin T based fluorescence assay. Also on record: species or system Homo sapiens.
Data set [2] can be described thus: Inhibition of Cu2+-induced amyloid beta (1 to 42 residues) (unknown origin) aggregation at 25 uM after 24 hrs by thioflavin-T fluorescence method relative to control.
The species entered for the next data set is Danio rerio. In words: Antialzheimer activity in Alcl3-induced zebra fish AD model assessed as increase in motility at 8 uM relative to control. Type of data set: functional.
For the next data set, the system named is Mus musculus. In words: Antialzheimer activity in scopolamine-induced Kunming mouse model of memory impairment assessed as latency time at 5 mg/kg , po by step-down passive avoidance test (reference value: 125.65 sec). Type of data set: functional.
The species entered for the next data set is Homo sapiens. In words: Inhibition of self-induced amyloid beta (1 to 42 residues) (unknown origin) aggregation at 25 uM by thioflavin T based fluorescence assay relative to control.
A short description of data set [3]: Disaggregation of Cu2+ induced amyloid beta (1 to 42 residues) (unknown origin) aggregation at 25 uM by thioflavin-T fluorescence method relative to control.
For data set [4], the target named is Acetylcholinesterase (Electrophorus electricus, UniProt O42275). In words: Inhibition of electric eel AChE by Ellman's method.
Chain of Acetylcholinesterase (Electrophorus electricus, UniProt O42275) (O42275 whole entry): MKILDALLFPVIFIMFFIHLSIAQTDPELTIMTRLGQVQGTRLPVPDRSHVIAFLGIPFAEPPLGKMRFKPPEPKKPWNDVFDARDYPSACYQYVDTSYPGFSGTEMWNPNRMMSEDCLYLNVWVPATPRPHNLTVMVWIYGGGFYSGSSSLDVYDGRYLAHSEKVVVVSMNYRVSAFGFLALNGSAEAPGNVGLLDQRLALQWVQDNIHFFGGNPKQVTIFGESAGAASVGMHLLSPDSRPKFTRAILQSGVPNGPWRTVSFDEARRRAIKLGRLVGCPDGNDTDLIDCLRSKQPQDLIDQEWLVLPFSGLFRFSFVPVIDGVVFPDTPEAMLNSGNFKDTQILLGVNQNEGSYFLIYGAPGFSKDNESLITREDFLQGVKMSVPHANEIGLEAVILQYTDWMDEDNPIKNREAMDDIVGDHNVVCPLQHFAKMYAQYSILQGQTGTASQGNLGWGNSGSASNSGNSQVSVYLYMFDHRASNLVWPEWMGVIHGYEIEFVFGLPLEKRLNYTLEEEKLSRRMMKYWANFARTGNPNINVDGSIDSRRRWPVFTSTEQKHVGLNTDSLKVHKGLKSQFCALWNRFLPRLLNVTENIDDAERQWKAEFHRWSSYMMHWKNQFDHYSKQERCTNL
The target of data set [5] is Cholinesterase (Equus caballus, UniProt P81908). In words: Inhibition of equine serum BChE by Ellman's method. Type of data set: cell-free. Background: Ellman's reagent forms a yellow product with free thiols.
Chain of Cholinesterase (Equus caballus, UniProt P81908) (P81908 whole entry): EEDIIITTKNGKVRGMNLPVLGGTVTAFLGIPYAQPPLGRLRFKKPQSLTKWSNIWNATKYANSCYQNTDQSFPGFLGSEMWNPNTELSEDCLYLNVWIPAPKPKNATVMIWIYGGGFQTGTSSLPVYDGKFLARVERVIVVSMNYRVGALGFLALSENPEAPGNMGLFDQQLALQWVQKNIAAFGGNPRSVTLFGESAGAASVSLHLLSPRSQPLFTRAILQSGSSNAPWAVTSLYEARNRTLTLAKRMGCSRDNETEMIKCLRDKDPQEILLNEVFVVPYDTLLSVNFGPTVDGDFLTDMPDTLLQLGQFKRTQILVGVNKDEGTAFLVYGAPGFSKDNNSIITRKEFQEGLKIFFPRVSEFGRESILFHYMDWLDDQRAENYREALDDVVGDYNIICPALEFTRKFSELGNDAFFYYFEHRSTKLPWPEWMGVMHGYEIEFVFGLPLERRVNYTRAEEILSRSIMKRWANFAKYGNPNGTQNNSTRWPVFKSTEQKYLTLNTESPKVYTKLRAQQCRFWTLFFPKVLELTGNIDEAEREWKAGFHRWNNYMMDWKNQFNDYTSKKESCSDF
The nature of data set [6]: Selectivity index, ratio of IC50 for inhibition of equine serum BChE to IC50 for inhibition of electric eel AChE.
Data set [7] deals with Acetylcholinesterase (Homo sapiens, UniProt P22303). Briefly: Inhibition of AChE in human erythrocytes by Ellman's method. Type of data set: cell-based, Erythrocyte.
Chain of Acetylcholinesterase (Homo sapiens, UniProt P22303) (P22303 whole entry): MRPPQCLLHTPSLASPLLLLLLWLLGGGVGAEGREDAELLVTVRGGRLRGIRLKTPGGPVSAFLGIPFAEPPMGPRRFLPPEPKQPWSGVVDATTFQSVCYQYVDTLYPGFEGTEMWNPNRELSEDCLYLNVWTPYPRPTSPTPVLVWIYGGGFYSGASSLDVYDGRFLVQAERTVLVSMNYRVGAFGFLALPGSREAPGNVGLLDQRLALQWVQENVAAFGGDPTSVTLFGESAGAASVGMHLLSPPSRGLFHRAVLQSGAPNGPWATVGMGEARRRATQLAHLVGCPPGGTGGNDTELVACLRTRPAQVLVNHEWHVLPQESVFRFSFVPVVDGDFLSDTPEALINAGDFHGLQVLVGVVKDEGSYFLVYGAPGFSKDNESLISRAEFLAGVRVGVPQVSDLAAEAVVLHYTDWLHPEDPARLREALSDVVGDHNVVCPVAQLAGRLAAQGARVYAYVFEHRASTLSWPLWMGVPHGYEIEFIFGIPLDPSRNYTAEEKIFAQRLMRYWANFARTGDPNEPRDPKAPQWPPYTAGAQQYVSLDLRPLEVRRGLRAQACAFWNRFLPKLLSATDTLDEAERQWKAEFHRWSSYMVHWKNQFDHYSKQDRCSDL
Data set [8] concerns the target Cholinesterase (Homo sapiens, UniProt P06276). In words: Inhibition of human serum BChE by Ellman's method. Format: cell-free.
Data set [9] is described as follows: Antioxidant activity assessed as trolox equivalent of AAPH radical scavenging activity measured every min for 4 hrs by ORAC-FL assay relative to trolox. Format: functional.
Data set [10] is described as follows: Cytotoxicity against rat PC-12 cells assessed as cell viability at 100 uM after 48 hrs by MTT assay relative to control. Format: cell-based. To be noted: read-out: Activity. (In general: Tetrazolium assays rely on reduction of a dye to a coloured formazan, in cell work by metabolically active cells.)
The next data set relates to PC-12. Briefly: Neuroprotective activity against H2O2-induced cytotoxicity in rat PC-12 cells assessed as decrease in LDH activity at 1 to 10 uM preincubated for 2 hrs followed by H2O2 addition and measured after 24 hrs by LDH assay. Format: functional, cell-based. The note with it: dose 1-10 µM, time 26.0 hrs.
Data set [11] relates to SH-SY5Y. Briefly: Cytotoxicity against human SH-SY5Y cells assessed as cell viability up to 100 uM after 48 hrs by MTT assay relative to control. Format: cell-based.
Data set [12] has as its system SH-SY5Y. Briefly: Neuroprotective activity against amyloid beta (1 to 42 residues)-induced cytotoxicity in human SH-SY5Y cells assessed as increase in cell viability at 1 to 10 uM incubated for 48 hrs by MTT assay. The note with it: dose 1-10 µM. Format: functional, cell-based.
Data set [13] relates to HT-22. In words: Inhibition of ubiquitin-proteasome system in mouse HT-22 cells expressing YFP-CLI assessed as increase in GFP level at 0.5 uM after 24 hrs by flow cytometric analysis. Type of data set: cell-based. (In flow cytometry, cells or beads pass a laser one at a time.)
In data set [14] the test system is HT-22. In words: Inhibition of ubiquitin-proteasome system in mouse HT-22 cells expressing YFP-CLI assessed as increase in GFP level at 0.5 uM after 24 hrs by fluorescence microscopic method. Format: cell-based.

Activity calls are given as the source filed them. The calls are words filed in the database; no cut-off is given here. Peptide text beside a SMILES is read from it. * marks the point of attachment. Cbz = O=C(OCc1ccccc1)*

Chain of Cholinesterase (Homo sapiens, UniProt P06276) (P06276 whole entry): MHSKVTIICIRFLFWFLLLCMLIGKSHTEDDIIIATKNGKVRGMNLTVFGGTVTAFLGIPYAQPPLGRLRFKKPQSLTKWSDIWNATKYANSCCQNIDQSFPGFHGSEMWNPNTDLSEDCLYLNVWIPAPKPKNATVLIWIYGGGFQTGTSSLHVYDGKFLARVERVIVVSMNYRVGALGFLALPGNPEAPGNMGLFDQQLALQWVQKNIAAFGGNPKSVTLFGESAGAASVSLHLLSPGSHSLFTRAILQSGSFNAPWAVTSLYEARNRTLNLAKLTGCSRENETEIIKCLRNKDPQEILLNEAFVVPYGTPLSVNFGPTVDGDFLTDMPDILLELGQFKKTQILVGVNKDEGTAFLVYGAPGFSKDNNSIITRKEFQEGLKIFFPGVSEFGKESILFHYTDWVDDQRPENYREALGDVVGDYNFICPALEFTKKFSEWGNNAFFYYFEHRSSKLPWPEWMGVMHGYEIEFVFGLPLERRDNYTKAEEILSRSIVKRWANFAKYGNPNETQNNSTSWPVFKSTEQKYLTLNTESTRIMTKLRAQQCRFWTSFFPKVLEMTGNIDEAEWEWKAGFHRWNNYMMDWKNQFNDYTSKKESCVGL

As to `COc1cc2c(cc1OC)C(=O)C(CC1CCN(Cc3ccccc3)CC1)C2` (stereo not given) [DONEPEZIL], in data set [1], the IC50 entry is listed as “Not Active”. Besides, the inhibition result in data set [2] was “inactive”. The Activity in the data set filed under Danio rerio came to 55%. The Time with Mus musculus was 251.42 s.

Take `COc1cc(/C=C/C(=O)CC(=O)/C=C/c2ccc(O)c(OC)c2)ccc1O`: the inhibition came to 43.7% in the data set filed under Homo sapiens and 53.6% in data set [2]. The molecule further registered an Activity in data set [3] of 56.1%.

With `CCN(CCCCOc1ccc(/C=C/C(=O)c2c(O)cc(OCCCCN(CC)Cc3ccccc3OC)cc2O)cc1)Cc1ccccc1OC`, the half-inhibitory concentration (IC50) was found to be 1.16 µM against Acetylcholinesterase [4]; 15.6 µM at Cholinesterase [5]; 1.3 µM against Acetylcholinesterase [7]; 5.2 µM against Cholinesterase [8]; 3.7 µM in data set [1] (read-out: IC50). Also, the Ratio IC50 in data set [6] amounted to 13.4. The fold change (FC) in data set [9] was 1.3. Further, the viability at 48 h, 100 µM in [10] came out at 55.6%. For the same molecule, the outcome with PC-12 and in the data set with SH-SY5Y [12] was Active. In the data set on SH-SY5Y [11], the Activity entry is given as “Toxic”.

For `CC(C)C[C@@H](C=O)NC(=O)[C@H](CC(C)C)NC(=O)[C@H](CC(C)C)NC(=O)OCc1ccccc1` (Cbz-Leu-Leu-Leu-aldehyde), the inhibition result in the data set with HT-22 [13] and in the data set on HT-22 [14] was “Active” each time.
